Test results reported in ChEMBL document CHEMBL1136491, “1-aryl-6,7-methylenedioxy-3H-quinazolin-4-ones as anticonvulsant agents” (Bioorg Med Chem Lett, 2003).

Columns and labels:
[1] = target: Glutamate receptor ionotropic, AMPA (Rattus norvegicus, UniProt P19490+P19491+P19492+P19493); assay: Ability to displace [3H]CP-526427 (3 nM) from binding site of the Ionotropic glutamate receptor AMPA in rat forebrain membrane; assay type: cell membranes
Mus musculus [2] = assay: Anticonvulsant activity against audiogenic tonus seizure 30 min after intraperitoneal administration (3.3-200 umol/kg) in DBA/2 mice; assay type: functional; settings: ip, 0.5 h
Mus musculus [3] = assay: Anticonvulsant activity against audiogenic clonus seizure 30 min after intraperitoneal administration (3.3-200 umol/kg) in DBA/2 mice; assay type: functional; settings: ip, 0.5 h
Mus musculus [4] = assay: Anticonvulsant activity against audiogenic clonus seizure 15 min after intraperitoneal administration (3.3-200 umol/kg) in DBA/2 mice; assay type: functional; settings: ip, 0.25 h

SMILES	IC50 [1] [µM]	ED50 (Mus musculus [2]) [µmol/kg]	ED50 (Mus musculus [3]) [µmol/kg]	ED50 (Mus musculus [4]) [µmol/kg]
Oc1nc(-c2ccc(Br)cc2)nc2cc3c(cc12)OCO3		36.6	68.3	
Nc1ccc(-c2nc(S)c3cc4c(cc3n2)OCO4)cc1		17.9	37.8	79.4
Oc1nc(-c2ccccc2)nc2cc3c(cc12)OCO3	> 100	46.1	59.5	
O=C1Cc2cc3c(cc2C(c2ccc(F)cc2)=NN1)OCO3		63.8	89.8	

Now from value to compound, other results behind:

IC50 [1] [µM]	SMILES	ED50 (Mus musculus [2]) [µmol/kg]	ED50 (Mus musculus [3]) [µmol/kg]	ED50 (Mus musculus [4]) [µmol/kg]
> 100	Oc1nc(-c2ccc(F)cc2)nc2cc3c(cc12)OCO3	27.8	32.7	
> 100	Oc1nc(-c2ccc(Cl)cc2)nc2cc3c(cc12)OCO3	21.6	36.5	
> 100	Nc1ccc(-c2nc(O)c3cc4c(cc3n2)OCO4)cc1	17.7	27.8	
> 100	Nc1ccc(-c2nnc(O)c3cc4c(cc23)OCO4)cc1			
